One block for each compound: values may come before it.
Experiments:
[1] = test system: Collagen-Induced Platelet Aggregation; assay: Platelet aggregation inhibitory activity: collagen-induced platelet aggregation in platelet rich plasma; type: cell-based; conditions: Cavia porcellus, guinea pig PRP
Procedure: (§1) A blood of a guinea pig was sampled by using a 1/10 volume of a 3.8% sodium citrate as a platelet aggregation inhibitor, and a platelet rich plasma (PRP) was separated by centrifuging the blood sample at 1100 rpm for 10 min. After fractionating the PRP in the upper layer, the lower layer was centrifuged at 3000 rpm for 10 min to fractionate the platelet poor plasma (PPP). To 100 μL of PRP, a 1 μL solution of each compound was added, and after still standing at 37° C. for 1 min, the mixture was stirred at 37° C. for 1 min by a stirrer. Then, 11 μL of collagen, ristocetin, or ADP was added thereto to induce the platelet aggregation. The platelet aggregation ability was measured by using the mCM hematolaser 313M (L-M-S Inc.). Based on the assumption that a light transmittance of PPP corresponds to a 100% coagulation value, an aggregation rate at each concentration of the compound was determined, then, an IC50 value was calculated therefrom.
[Platelet Aggregation Inhibitory Activities: Collagen-Induced Platelet Aggregation]

[2] = test system: Ristocetin-Induced Platelet Aggregation; assay: Platelet aggregation inhibitory activity: ristocetin-induced platelet aggregation in platelet rich plasma; type: cell-based; conditions: Cavia porcellus, guinea pig PRP
Procedure: as §1
[Platelet Aggregation Inhibitory Activities: Ristocetin-Induced Platelet Aggregation]

SMILES: COc1ccc(-n2c(-c3ccc([N+](=O)[O-])cn3)nc3cc(C(F)(F)F)ccc32)nn1 [Example 53, 1-(6-methoxypyridazin-3-yl)-2-(5-nitropyridin-2-yl)-5-(trifluoromethyl)-1H-benzimidazole]
- IC50 [1]: 57 nM
- IC50 [2]: 42 nM

SMILES: COc1ccc(-n2c(-c3nccs3)nc3cc(C(F)(F)F)ccc32)nn1 [Example 54, 1-(6-methoxypyridazin-3-yl)-2-(1,3-thiazol-2-yl)-5-(trifluoromethyl)-1H-benzimidazole]
- IC50 [1]: 190 nM
- IC50 [2]: 100 nM

SMILES: COc1ccc(-n2c(-c3ccccn3)nc3cc(C(F)(F)F)c(Cl)cc32)cn1 [Example 55, 6-chloro-1-(6-methoxypyridin-3-yl)-2-pyridin-2-yl-5-(trifluoromethyl)-1H-benzimidazole]
- IC50 [1]: 84 nM
- IC50 [2]: 60 nM

SMILES: CCc1ccc(-c2nc3cc(C(F)(F)F)ccc3n2-c2ccc(OC)nn2)nc1 [Example 56, 2-(5-ethylpyridin-2-yl)-1-(6-methoxypyridazin-3-yl)-5-(trifluoromethyl)-1H-benzimidazole]
- IC50 [1]: 47 nM
- IC50 [2]: 28 nM

SMILES: COc1ccc(-n2c(-c3cc(C)ccn3)nc3cc(C(F)(F)F)ccc32)nn1 [Example 58, 1-(6-methoxypyridazin-3-yl)-2-(4-methylpyridin-2-yl)-5-(trifluoromethyl)-1H-benzimidazole]
- IC50 [1]: 170 nM
- IC50 [2]: 280 nM

SMILES: CSc1ccc(-n2c(-c3ccccn3)nc3cc(C(F)(F)F)ccc32)nn1 [Example 67, 1-[6-(methylthio)pyridazin-3-yl]-2-pyridin-2-yl-5-(trifluoromethyl)-1H-benzimidazole]
- IC50 [1]: 170 nM
- IC50 [2]: 230 nM

SMILES: COc1ccc(-n2c(-c3cc(C)on3)nc3cc(C(F)(F)F)ccc32)nn1 [Example 72, 2-(5-methylisoxazol-3-yl)-1-(6-methoxypyridazin-3-yl)-5-(trifluoromethyl)-1H-benzimidazole]
- IC50 [1]: 180 nM
- IC50 [2]: 130 nM

SMILES: COc1ccc(-n2c(-c3cc(Br)ccn3)nc3cc(C(F)(F)F)ccc32)nn1 [Example 75, 2-(4-bromopyridin-2-yl)-1-(6-methoxypyridazin-3-yl)-5-(trifluoromethyl)-1H-benzimidazole]
- IC50 [1]: 200 nM
- IC50 [2]: 380 nM

SMILES: COc1ccc(-n2c(-c3ncccc3C#N)nc3cc(C(F)(F)F)ccc32)nn1 [Example 81, 2-[1-(6-methoxypyridazin-3-yl)-5-(trifluoromethyl)-1H-benzimidazole-2-yl]nicotinonitrile]
- IC50 [1]: 220 nM
- IC50 [2]: 500 nM

SMILES: COc1ccc(-n2c(-c3cscn3)nc3cc(C(F)(F)F)ccc32)nn1 [Example 89, 1-(6-methoxypyridazin-3-yl)-2-(1,3-thiazol-4-yl)-5-(trifluoromethyl)-1H-benzimidazole]
- IC50 [1]: 53 nM
- IC50 [2]: 70 nM

SMILES: COc1ccc(-n2c(-c3cnc(C)cn3)nc3cc(C(F)(F)F)ccc32)nn1 [Example 90, 1-(6-methoxypyridazin-3-yl)-2-(5-methylpyrazine-2-yl)-5-(trifluoromethyl)-1H-benzimidazole]
- IC50 [1]: 60 nM
- IC50 [2]: 20 nM

SMILES: COc1ccc(-n2c(-c3coc(C)n3)nc3cc(C(F)(F)F)ccc32)nn1 [Example 139, 1-(6-methoxypyridazin-3-yl)-2-(2-methyl-1,3-oxazol-4-yl)-5-(trifluoromethyl)-1H-benzimidazole]
- IC50 [1]: 60 nM
- IC50 [2]: 86 nM

SMILES: COc1ccc(-n2c(-c3ccccn3)nc3cc(OC(C)C)cnc32)cn1 [Example 145, 6-isopropoxy-3-(6-methoxypyridin-3-yl)-2-pyridin-2-yl-3H-imidazo[4,5-b]pyridine]
- IC50 [1]: 74 nM
- IC50 [2]: 106 nM

SMILES: COc1ccc(-n2c(-c3ccccn3)nc3cc(OC(F)F)cnc32)cn1 [Example 146, 6-(difluoromethoxy)-3-(6-methoxypyridin-3-yl)-2-pyridin-2-yl-3H-imidazo[4,5-b]pyridine]
- IC50 [1]: 78 nM
- IC50 [2]: 66 nM

SMILES: COc1ccc(-n2c(-c3cocn3)nc3cc(OC(F)(F)F)ccc32)nn1 [Example 155, 1-(6-methoxypyridazin-3-yl)-2-(1,3-oxazol-4-yl)-5-(trifluoromethoxy)-1H-benzimidazole]
- IC50 [1]: 29 nM
- IC50 [2]: 29 nM

SMILES: COc1ccc(-n2c(-c3coc(C)n3)nc3cc(OC(F)(F)F)ccc32)nn1 [Example 158, 1-(6-methoxypyridazin-3-yl)-2-(2-methyl-1,3-oxazol-4-yl)-5-(trifluoromethoxy)-1H-benzimidazole]
- IC50 [1]: 60 nM
- IC50 [2]: 60 nM

SMILES: CCCOc1cnc2c(c1)nc(-c1ccccn1)n2-c1ccc(OC)nc1 [Example 173, 3-(6-methoxypyridin-3-yl)-6-propoxy-2-pyridin-2-yl-3H-imidazo[4,5-b]pyridine]
- IC50 [1]: 77 nM
- IC50 [2]: 85 nM

The next lines start with the values.

- IC50 [1]: 80 nM
- IC50 [2]: 83 nM
SMILES: COc1ccc(-n2c(-c3ccn(C)n3)nc3cc(C(F)(F)F)cnc32)cn1 [Example 73, 3-(6-methoxypyridin-3-yl)-2-(1-methyl-1H-pyrazol-3-yl)-6-(trifluoromethyl)-3H-imidazo[4,5-b]pyridine]

- IC50 [1]: 190 nM
- IC50 [2]: 100 nM
SMILES: COc1ccc(-n2c(-c3csc(C)n3)nc3cc(C(F)(F)F)ccc32)nn1 [Example 94, 1-(6-methoxypyridazin-3-yl)-2-(2-methyl-1,3-thiazol-4-yl)-5-(trifluoromethyl)-1H-benzimidazole]

- IC50 [1]: 66 nM
- IC50 [2]: 35 nM
SMILES: COc1ccc(-n2c(-c3cocn3)nc3cc(C(F)(F)F)cnc32)cn1 [Example 107, 3-(6-methoxypyridin-3-yl)-2-(1,3-oxazol-4-yl)-6-(trifluoromethyl)-3H-imidazo[4,5-b]pyridine]

- IC50 [1]: 210 nM
- IC50 [2]: 100 nM
SMILES: COc1ccc(-n2c(-c3cc(C)on3)nc3cc(C(F)(F)F)cnc32)cn1 [Example 108, 3-(6-methoxypyridin-3-yl)-2-(5-methylisoxazol-3-yl)-6-(trifluoromethyl)-3H-imidazo[4,5-b]pyridine]

- IC50 [1]: 95 nM
- IC50 [2]: 23 nM
SMILES: COc1ccc(-n2c(-c3cscn3)nc3cc(C(F)(F)F)cnc32)cn1 [Example 109, 3-(6-methoxypyridin-3-yl)-2-(1,3-thiazol-4-yl)-6-(trifluoromethyl)-3H-imidazo[4,5-b]pyridine]

- IC50 [1]: 130 nM
- IC50 [2]: 120 nM
SMILES: COc1ccc(-n2c(-c3csc(C)n3)nc3cc(C(F)(F)F)cnc32)cn1 [Example 110, 3-(6-methoxypyridin-3-yl)-2-(2-methyl-1,3-thiazol-4-yl)-6-(trifluoromethyl)-3H-imidazo[4,5-b]pyridine]

- IC50 [1]: 34 nM
- IC50 [2]: 40 nM
SMILES: COc1ccc(-n2c(-c3coc(C)n3)nc3cc(C(F)(F)F)cnc32)cn1 [Example 122, 3-(6-methoxypyridin-3-yl)-2-(2-methyl-1,3-oxazol-4-yl)-6-(trifluoromethyl)-3H-imidazo[4,5-b]pyridine]

- IC50 [1]: 29 nM
- IC50 [2]: 27 nM
SMILES: COc1cnc(-n2c(-c3ccccn3)nc3cc(C(F)(F)F)cnc32)cn1 [Example 125, 3-(5-methoxypyrazine-2-yl)-2-pyridin-2-yl-6-(trifluoromethyl)-3H-imidazo[4,5-b]pyridine]

- IC50 [1]: 194 nM
- IC50 [2]: 90 nM
SMILES: COc1ccc(-n2c(-c3ncoc3C)nc3cc(C(F)(F)F)cnc32)cn1 [Example 126, 3-(6-methoxypyridin-3-yl)-2-(5-methyl-1,3-oxazol-4-yl)-6-(trifluoromethyl)-3H-imidazo[4,5-b]pyridine]

- IC50 [1]: 177 nM
- IC50 [2]: 170 nM
SMILES: Cc1ccc(-n2c(-c3ccc(C#N)cn3)nc3cc(C(F)(F)F)cnc32)cn1 [Example 130, 6-[3-(6-methylpyridin-3-yl)-6-(trifluoromethyl)-3H-imidazo[4,5-b]pyridin-2-yl]nicotinonitrile]

- IC50 [1]: 30 nM
- IC50 [2]: 22 nM
SMILES: COc1cnc(-n2c(-c3ccc(F)cn3)nc3cc(C(F)(F)F)cnc32)cn1 [Example 144, 2-(5-fluoropyridin-2-yl)-3-(5-methoxypyrazine-2-yl)-6-(trifluoromethyl)-3H-imidazo[4,5-b]pyridine]

- IC50 [1]: 205 nM
- IC50 [2]: 205 nM
SMILES: CNc1ccc(-n2c(-c3ccc(C#N)cn3)nc3cc(C(F)(F)F)cnc32)cn1 [Example 150, 6-{3-[6-(methylamino)pyridin-3-yl]-6-(trifluoromethyl)-3H-imidazo[4,5-b]pyridin-2-yl]nicotinonitrile]

- IC50 [1]: 24 nM
- IC50 [2]: 24 nM
SMILES: COc1cnc(-n2c(-c3cocn3)nc3cc(C(F)(F)F)cnc32)cn1 [Example 151, 3-(5-methoxypyrazine-2-yl)-2-(1,3-oxazol-4-yl)-6-(trifluoromethyl)-3H-imidazo[4,5-b]pyridine]

- IC50 [1]: 86 nM
- IC50 [2]: 86 nM
SMILES: COc1cnc(-n2c(-c3coc(C)n3)nc3cc(C(F)(F)F)cnc32)cn1 [Example 152, 3-(5-methoxypyrazine-2-yl)-2-(2-methyl-1,3-oxazol-4-yl)-(trifluoromethyl)-3H-imidazo[4,5-b]pyridine]

- IC50 [1]: 129 nM
- IC50 [2]: 129 nM
SMILES: COc1cnc(-n2c(-c3cc(C)on3)nc3cc(C(F)(F)F)cnc32)cn1 [Example 154, 3-(5-methoxypyrazine-2-yl)-2-(5-methylisoxazol-3-yl)-6-(trifluoromethyl)-3H-imidazo[4,5-b]pyridine]

- IC50 [1]: 28 nM
- IC50 [2]: 28 nM
SMILES: COc1ccc(-n2c(-c3ccc(Cl)cn3)nc3cc(C(F)(F)F)cnc32)cn1 [Example 159, 2-(5-chloropyridin-2-yl)-3-(6-methoxypyridin-3-yl)-6-(trifluoromethyl)-3H-imidazo[4,5-b]pyridine]

Reference: patent publication US9533983B2, “Antiplatelet agent” (Mitsubishi Tanabe Pharma Corporation, priority 2009, dated 2017)
